Test results taken from patent US8129552B2, “Phospholipids with unsaturated alkyl and acyl chains” (Max-Planck-Gesellschaft zur Forderung der Wissenschaften …, priority 1998, dated 2012).
Read-outs that look alike come from different tables or passages of the source.

Key:
tumor [1] = test: Antitumor activity of alkylphosphocholines: T/C and median tumor volume after therapy (Example 5); type: in vivo; conditions: for T/C (quotient of the median tumor volume in the treated and the control group × 100): evaluation after therapy for 5 weeks
Text: Comparison of the Known Antitumor Active Ingredient Erucylphosphocholine with Active Ingredients of the Invention
Comparison of a compound not of the invention (erucylphosphocholine) with two active ingredients of the invention is shown in Table 1.

[2] = oral administration; cited from earlier work
[3] = rats; cited from earlier work
cell culture = conditions: cited from earlier work
complex organisms = conditions: in vivo; cited from earlier work
tumor [4] = conditions: evaluation after therapy for 5 weeks, cited from earlier work

Structure (SMILES)	Median tumor volume, 2 weeks later (tumor [1]; dose 42 μmol/kg)	Median tumor volume, End of therapy (tumor [1]; dose 42 μmol/kg)	Median tumor volume, 2 weeks later (tumor [1]; dose 84 μmol/kg)	Median tumor volume, End of therapy (tumor [1]; dose 84 μmol/kg)	Median tumor volume, 2 weeks later (tumor [1]; dose 170 μmol/kg)	Median tumor volume, End of therapy (tumor [1]; dose 170 μmol/kg)	Median tumor volume, 2 weeks later (tumor [1]; dose 256 μmol/kg)	Median tumor volume, End of therapy (tumor [1]; dose 256 μmol/kg)	other results
CCCCCCCC/C=C\CCCCCCCCCCCOP(=O)([O-])OCC[N+](C)(C)C [(Z)-12-Heneicosenyl-1-phosphocholine, (Z)-12-heneicosenyl-1-phosphocholine]	4.5 cm^3	3.4 cm^3	1.2 cm^3	0.3 cm^3	0.1 cm^3	0.1 cm^3	0.8 cm^3	0.2 cm^3	–
CCCCCCCCCCCCCCCCOP(=O)([O-])OCC[N+](C)(C)C [HePC, hexadecylphosphocholine]	–	–	–	–	–	–	–	–	toxicity in clinical studies [2]: toxicities in the gastrointestinal tract; adverse effect of direct intravenous administration of a solution [3]: thrombophlebitis
CCCCCCCCCCC/C=C\CCCCCCCCCOP(=O)([O-])OCC[N+](C)(C)C [(Z)-10-Docosenyl-1-PC, (Z)-10-docosenyl-1-phosphocholine]	4.5 cm^3	4.0 cm^3	3.4 cm^3	1.2 cm^3	0.2 cm^3	0.2 cm^3	0.2 cm^3	0.1 cm^3	T/C (quotient of the median tumor volume in the treated and the control group × 100) (tumor [1]; weekly dose 42 μmol/kg): 9%; T/C (quotient of the median tumor volume in the treated and the control group × 100) (tumor [1]; weekly dose 170 μmol/kg): 0.5%; T/C (quotient of the median tumor volume in the treated and the control group × 100) (tumor [1]; weekly dose 256 μmol/kg): 0.2%
CCCCC/C=C\CCCC/C=C\CCCCCCCCCOP(=O)([O-])OCC[N+](C)(C)C [(Z,Z)-10,16-Docosadienyl-1-PC, (Z,Z)-10,16-docosadienyl-1-phosphocholine]	11.4 cm^3	7.5 cm^3	0.6 cm^3	0.6 cm^3	0.7 cm^3	0.5 cm^3	–	–	–
CCCCCCCCCCCCCCCCCCOCC(COP(=O)([O-])OCC[N+](C)(C)C)OC (racemic) [ET18-OCH3, 1-O-octadecyl-2-O-methyl-rac-glycero-3-phosphocholine]	–	–	–	–	–	–	–	–	antineoplastic activity in cell-culture experiments (cell culture): excellent antineoplastic activity; activity in complex organisms (complex organisms): virtually inactive
CCCCC/C=C\CCCCCCCCCCCCCCCOP(=O)([O-])OCC[N+](C)(C)C [(Z)-16-Docosenyl-1-phosphocholine, (Z)-16-docosenyl-1-phosphocholine]	–	26.9 cm^3	7.6 cm^3	2.5 cm^3	0.4 cm^3	0.2 cm^3	–	–	–
CCCCCCCC/C=C\CCCCCCCCCCCCOP(=O)([O-])OCC[N+](C)(C)C [Erucylphosphocholine, erucylphosphocholine]	–	–	–	–	–	–	–	–	T/C (quotient of the median tumor volume in the treated and the control group × 100) (tumor [4]; weekly dose 90 μmol/kg): 31%; T/C (quotient of the median tumor volume in the treated and the control group × 100) (tumor [4]; weekly dose 180 μmol/kg): 6%; T/C (quotient of the median tumor volume in the treated and the control group × 100) (tumor [4]; weekly dose 360 μmol/kg): <0.1%
C=CCCCCCCCC/C=C\CCCCCCCCCCOP(=O)([O-])OCC[N+](C)(C)C [(Z)-11,21-Docosadienyl-1-PC, (Z)-11,21-docosadienyl-1-phosphocholine]	2.5 cm^3	1.5 cm^3	2.9 cm^3	0.9 cm^3	0.5 cm^3	0.4 cm^3	–	–	T/C (quotient of the median tumor volume in the treated and the control group × 100) (tumor [1]; weekly dose 42 μmol/kg): 8%; T/C (quotient of the median tumor volume in the treated and the control group × 100) (tumor [1]; weekly dose 170 μmol/kg): 2%
CCCCCCC/C=C\CCCC/C=C\CCCCCOP(=O)([O-])OCC[N+](C)(C)C [(Z,Z)-6,12-Eicosadienyl-1-PC, (Z,Z)-6,12-eicosadienyl-1-phosphocholine]	13.9 cm^3	10 cm^3	13.9 cm^3	3.2 cm^3	1.9 cm^3	0.4 cm^3	0 cm^3	0 cm^3	–
